What was measured:
Test in all cases: microbe, parasite or virus in culture
Format in all cases: functional, organism-based
Settings in all cases: A/Guangzhou/GIRD/07/2009 (H1N1), MDCK
Influenza A virus [1] = system: Influenza A virus
Influenza A virus [2] = system: Influenza A virus; remark: listed apart in the source
Influenza A virus [3] = system: Influenza A virus; remark: listed apart in the source
Influenza A virus [4] = system: Influenza A virus; remark: listed apart in the source
Influenza A virus [5] = system: Influenza A virus; remark: listed apart in the source
Influenza A virus [6] = system: Influenza A virus; remark: listed apart in the source
Influenza A virus [7] = system: Influenza A virus; remark: listed apart in the source
Influenza A virus [8] = system: Influenza A virus; remark: listed apart in the source
Influenza A virus [9] = system: Influenza A virus; remark: listed apart in the source

For `C[C@@H]1C2CC(C[C@H]1NCc1sccc1C1CC1)C2(C)C` (single isomer, unassigned), the EC50 (Influenza A virus [1]) was 0.34 µM, the EC50 (Influenza A virus [2]) was 0.32 µM and the EC50 (Influenza A virus [3]) was 1.7 µM. For the same compound, the EC50 (Influenza A virus [4]) was 8.7 µM, the EC50 (Influenza A virus [5]) was 13.8 µM and the EC50 (Influenza A virus [6]) was 25.6 µM. For the same compound, the EC50 (Influenza A virus [7]) was over 43 µM, the EC50 (Influenza A virus [8]) was over 43 µM and the EC50 (Influenza A virus [9]) was over 43 µM.

Reference: ChEMBL document CHEMBL4130623, “Discovery of Highly Potent Pinanamine-Based Inhibitors against Amantadine- and Oseltamivir-Resistant Influenza A Viruses” (J Med Chem, 2018)
